Reference: publication PMC12669049, “Energy-transfer photoproximity labelling in live cells using an organic cofactor” (Nature Chemistry, 2025)
Several values for one entry are separate records, joined by “and”; a condition that tells them apart may be missing. Equal values may be shown once.

Columns and labels:
[1] = Photocatalytic conversion of diazirine, analysis via 19F NMR
Description: To an 8 ml crimp neck vial with a magnetic stirrer bar was added a solution of diazirine (100 µM, 10 µl of 10 mM DMSO stock) and photocatalyst (10 µM, 10 µl of 1 mM DMSO stock) in PBS (pH = 7.4, 1 ml). The vial was sealed and sparged with Ar for 10 min before being irradiated with 450 nm light (30 W LED; EvoluChem, PhotoRedOx Box) for 15 min. The solution was then spiked with p-(trifluoromethyl)benzoic acid as the internal standard (100 µM, chemical shift (δ) = −61.35 ppm) and analysed via ^19F NMR to determine the conversion of diazirine (δ = −64.23 ppm) to the carbinol product (δ = −76.64 ppm)[17]. Conversions are represented as the average of duplicate runs.

[2] = Phenyl azide S3 conversion via HPLC
Description: 3.2 Photocatalyst Screening
3.2.1 Phenyl azide conversion via HPLC
To an 8 mL crimp neck vial with magnetic stirrer bar was added a solution of phenyl azide S3 (1 mM, 10 µL of 100 mM DMSO stock) and photocatalyst (PC, 0.1 mM, 10 µL of 10 mM DMSO stock) in PBS pH = 7.4 (1 mL). The vial was sealed and sparged with Ar for 10 min before being irradiated with a 450 nm light (40W, EvoluChem, PhotoRedOx Box) for 15 min. […]
trifluoromethylbenzoic acid as the internal standard (1 mM) and analysed using analytical HPLC (see Section 2.5 for further details). Conversions were calculated using standard calibration curve of phenyl azide S3 vs. internal standard and are represented as the average of duplicate runs.
Calibration curve of phenyl azide S3 vs. internal standard
(also on this page, place not known: Normalised Intensity (Substrate/Standard))

[3] = Stationary and time-resolved absorption and emission spectroscopy (photophysics); assay type: physicochemical
Excerpt: (§1) Details of the stationary and time-resolved absorption and emission spectroscopy procedures used for the mechanistic studies are given in Supplementary Section 3.3.

[4] = cited from earlier work
[5] = Transient absorption of 4 with substrates (triplet energy / electron transfer); assay type: physicochemical; conditions: GSH 50 mM
Excerpt: as §1

HeLa cells = assay: Cell viability assay (WST-1); assay type: cell-based; conditions: WST-1, 24 h incubation, Extended Data Fig. 5a
[6] = test system: reporter HeLa cells expressing cytoplasmic HaloTag–SNAP-tag fusion protein; assay: Modified chloroalkane penetration assay (CAPA), HeLa; assay type: in vitro ADME; conditions: modified pulse-chase CAPA, 1 h pulse in FluoroBrite DMEM, chase CA–TMR-d12 15 min, BG–SiR-d12 1 µM for normalisation, flow cytometry, Fig. 4f, three biological replicates (mean ± SD)
Description: (§2) CA–TMR-d12 and BG–SiR-d12 were prepared as described previously. HeLa or HEK293T cells were seeded onto 10 cm cell culture dishes and allowed to attach for 24 h under standard cell culture maintenance conditions. The culture medium was replaced with fresh DMEM (5 ml, high glucose) with 10% FCS without antibiotics followed by plasmid (pcDNA5-HaloTag-Pro30-SNAP-tag) transfection using Lipofectamine 3000 (Thermo) according to Supplementary Section 2.8. After 24 h, the transfected cells were trypsinized, seeded into 24-well cell culture plates (1 × 10^5 cells per well) and incubated again for 24 h. […] Cell pellets were resuspended in PBS (400 µl) and analysed via flow cytometry (FACS Fortessa). The mean fluorescence intensity (MFI) values in the TMR and Cy5 (SiR) channels of live cells were determined. […] Equation (2) below was used to determine the percentage fluorescence intensity:2 Fluorescenceintensity%=(photocatalyst−chloroalkaneMFITMR)−(photocatalystMFITMR)/(CA−NHBocMFITMR)−(photocatalystMFITMR)×100.

[7] = test system: reporter HEK293T cells expressing cytoplasmic HaloTag–SNAP-tag fusion protein; assay: Modified chloroalkane penetration assay (CAPA), HEK293T; assay type: in vitro ADME; conditions: 1 h pulse, flow cytometry, Extended Data Fig. 6b, representative data of two biological replicates
Description: as §2

[8] = PBS pH 7.4, diazirine 100 µM, photocatalyst 10 µM, 450 nm LED 15 min, average of duplicate runs
[9] = PBS pH 7.4, S3 1 mM, photocatalyst 0.1 mM, 450 nm 15 min, HPLC calibration curve, average of duplicate runs

With diMeO-deazaflavin [S1] the “Conversion of diazirine 1” value [1, 8] was < 50% and 44%, the “Conversion of aryl azide S3” value [2, 9] was 79% and the λmax ([3]; Supplementary Fig. 4) was 418 nm.
With `O=c1c2ccccc2sc2ccccc12` [2a, thioxanthone] the “Conversion of diazirine 1” value [1, 8] was 71% and > 70%, the “Conversion of aryl azide S3” value [2, 9] was 77% and the “λmax of first absorption band” value ([3]; Fig. 1a, footnote a (footnote text not shown; a = 1:1 DMSO/H2O in Supplementary Fig. 4)) was 385 nm. The λmax ([3]; Supplementary Fig. 4) was 387 nm and the “Triplet energy (ET, E0–0,T1)” value [4] was 67.4 kcal/mol.
With `N[C@@H](CCC(=O)N[C@@H](CS)C(=O)NCC(=O)O)C(=O)O` [GSH, glutathione] the “Quantum yield of electron transfer ΦeT to triplet state of 4” value [5] was 73%.
For `O=C1OC2(c3ccccc31)c1cc(Br)c(O)c(Br)c1Oc1c2cc(Br)c(O)c1Br` [EY, eosin Y], the “Cytotoxicity (in words)” value (HeLa cells) was “do not induce cytotoxicity”.
For `Cn1c2nc(=O)[nH]c(=O)c-2cc2ccccc21` [compound 4, deazaflavin], the “Conversion of diazirine 1” value ([1]; 1:1 DMSO/H2O, 450 nm 15 min) was 85% and the “Conversion of aryl azide S3” value [2, 9] was 100%.
With `Cn1c2nc(=O)n(CC(=O)NCCOCCOCCCCCCCl)c(=O)c-2cc2ccccc21` [compound 15] the “CP50 (treatment concentration where 50% of the HaloTags are labelled)” value [6] was 198 ± 79.2 nM and the CP50 [7] was 2,063 nM.
For Ir[dFCF3CO2Hppy]2[diolbpy] [3a], the “Conversion of aryl azide S3” value [2, 9] was 84%, the λmax ([3]; Supplementary Fig. 4) was 380 nm and the “Cytotoxicity (in words)” value (HeLa cells) was “do not induce cytotoxicity”. The “Triplet energy (ET, E0–0,T1)” value [4] was 60.1 kcal/mol.
For MeO-thioxanthone [2b], the “Conversion of diazirine 1” value [1, 8] was < 5% and the “Conversion of aryl azide S3” value [2, 9] was 61%.
For `CC(C)(C)c1ccnc(-c2cc(C(C)(C)C)ccn2)c1.F[P-](F)(F)(F)(F)F.Fc1c[c-]c(-c2ccc(C(F)(F)F)cn2)c(F)c1.Fc1c[c-]c(-c2ccc(C(F)(F)F)cn2)c(F)c1.[Ir+3]` [3b, [Ir(dF(CF3)ppy)2(dtbbpy)]PF6], the λmax ([3]; Supplementary Fig. 4, 1:1 DMSO/H2O) is given as 380 nm, the “Singlet oxygen quantum yield ΦΔ” value ([3]; in acetonitrile) is given as 93% and the “Triplet energy (ET, E0–0,T1)” value [4] is given as 60.1 kcal/mol.
With diMeO-alloxazine [S2] the “Conversion of aryl azide S3” value [2, 9] was 94% and the λmax ([3]; Supplementary Fig. 4) was 396 nm.
In the case of Riboflavin tetraacetate [RTA], the “Conversion of aryl azide S3” value ([2]; pH 7.4) is reported as 69%.
